ChEMBL document CHEMBL4627394, “A Grand Challenge. 3. Unbiased Phenotypic Function of Metabolites from Australia Plants Gloriosa superba and Alangium villosum against Parkinson's Disease” (J Nat Prod, 2020)
Active and inactive are the calls of the source. The calls are words filed in the database; no cut-off is given here.

How the values were obtained:
[1] = Cytotoxicity against Parkinson's disease patient derived human ONS cells assessed as effect on cell morphology parameters at 10 uM after 24 hrs by DAPI staining based fluorescence assay
Homo sapiens = organism: Homo sapiens; assay: Effect on early endosome parameters in Parkinson's disease patient derived human ONS cells at 10 uM after 24 hrs by EEA1 staining based fluorescence assay; type: functional
[2] = Cytotoxicity against Parkinson's disease patient derived human ONS cells assessed as effect on nucleus morphology parameters at 10 uM after 24 hrs by DAPI staining based fluorescence assay

Row | SMILES | Activity [1] | Activity (Homo sapiens) | Activity [2]
1 | CC[C@H]1C[N@@+]2(O)CCc3cc(O)c(OC)cc3[C@@H]2C[C@@H]1C[C@H]1NCCc2c1[nH]c1ccc(O)cc21.O=C(O)C(F)(F)F.O=C([O-])C(F)(F)F | Non-Toxic | Active | Non-Toxic
2 | CC[C@H]1CN2CCc3cc(O)c(OC)cc3[C@@H]2C[C@@H]1C[C@@H]1NCCc2c1[nH]c1ccc(O)cc21.O=C(O)C(F)(F)F.O=C(O)C(F)(F)F | Non-Toxic | Active | Non-Toxic
3 | COc1cc2c(c(OC)c1OC)-c1ccc(OC)c(=O)cc1[C@@H](NC(C)=O)CC2 [COLCHICINE] | Non-Toxic | – | Non-Toxic
4 | COc1c2c(cc3c1-c1ccc(OC)c(=O)cc1[C@@H](NC(C)=O)CC3)OCO2 | Non-Toxic | – | Non-Toxic
5 | CC[C@H]1CN2CCc3cc(OC)c(OC)cc3[C@@H]2C[C@@H]1C[C@H]1NCCc2c1[nH]c1ccc(O)cc21.O=C(O)C(F)(F)F.O=C(O)C(F)(F)F | Non-Toxic | Active | Non-Toxic
6 | COC1=C[C@H]2C3=C([C@H]2C1=O)[C@@H](NC(C)=O)CCc1cc(OC)c(O[C@@H]2O[C@H](CO)[C@@H](O)[C@H](O)[C@H]2O)c(OC)c13 | Non-Toxic | – | Non-Toxic
7 | COC1=C[C@@H]2C3=C([C@@H]2C1=O)[C@@H](NC=O)CCc1cc(OC)c(O[C@@H]2O[C@H](CO)[C@@H](O)[C@H](O)[C@H]2O)c(OC)c13 | Non-Toxic | – | Non-Toxic
8 | COC1=C[C@@H]2C3=C([C@@H]2C1=O)[C@@H](NC(C)=O)CCc1cc(OC)c(O[C@@H]2O[C@H](CO)[C@@H](O)[C@H](O)[C@H]2O)c(OC)c13 | Non-Toxic | – | Non-Toxic
9 | CC[C@H]1CN2CCc3cc(O)c(OC)cc3[C@@H]2C[C@@H]1C[C@H]1NCCc2c1[nH]c1ccc(O)cc21.O=C(O)C(F)(F)F.O=C(O)C(F)(F)F | Non-Toxic | Active | Non-Toxic
10 | COC1=C[C@@H]2C3=C([C@@H]2C1=O)[C@@H](NC=O)CCc1cc(OC)c(OC)c(OC)c13 | Non-Toxic | – | Non-Toxic
11 | CC[C@H]1CN2CCc3cc(OC)c(OC)cc3[C@@H]2C[C@@H]1C[C@@H]1NCCc2c1[nH]c1ccc(O)cc21.O=C(O)C(F)(F)F.O=C(O)C(F)(F)F | Non-Toxic | Active | Non-Toxic
12 | CC[C@H]1C[N@@+]2(O)CCc3cc(OC)c(OC)cc3[C@@H]2C[C@@H]1C[C@H]1NCCc2c1[nH]c1ccc(O)cc21.O=C(O)C(F)(F)F.O=C([O-])C(F)(F)F | Non-Toxic | Active | Non-Toxic
13 | COC1=C[C@@H]2C3=C([C@@H]2C1=O)[C@@H](NC(C)=O)CCc1cc(O[C@@H]2O[C@H](CO)[C@@H](O)[C@H](O)[C@H]2O)c(O)c(OC)c13 | Non-Toxic | – | Non-Toxic
14 | CC[C@H]1C[N@+]2(O)CCc3cc(OC)c(OC)cc3[C@@H]2C[C@@H]1C[C@@H]1NCCc2c1[nH]c1ccc(O)cc21.O=C(O)C(F)(F)F.O=C([O-])C(F)(F)F | Non-Toxic | Active | Non-Toxic
15 | COC1=C[C@@H]2C3=C([C@@H]2C1=O)[C@@H](NC=O)CCc1cc(OC)c(O)c(OC)c13 | Non-Toxic | – | Non-Toxic
16 | COc1cc2c(c(OC)c1O)-c1ccc(OC)c(=O)cc1[C@@H](NC=O)CC2 | Non-Toxic | – | Non-Toxic
17 | CC[C@H]1C[N@+]2(O)CCc3cc(O)c(OC)cc3[C@@H]2C[C@@H]1C[C@@H]1NCCc2c1[nH]c1ccc(O)cc21.O=C(O)C(F)(F)F.O=C([O-])C(F)(F)F | Non-Toxic | Active | Non-Toxic
18 | COc1cc2c(c(OC)c1OC)-c1ccc(OC)c(=O)cc1[C@@H](NC=O)CC2 | Non-Toxic | – | Non-Toxic
19 | COc1cc2c(c(OC)c1O)-c1ccc(OC)c(=O)cc1[C@@H](NC(C)=O)CC2 [2-DESMETHYLCOLCHICIN] | Non-Toxic | – | Non-Toxic
20 | COC1=C[C@@H]2C3=C([C@@H]2C1=O)[C@@H](NC(C)=O)CCc1cc(OC)c(OC)c(OC)c13 | Non-Toxic | – | Non-Toxic
21 | CC[C@H]1CN2CCc3cc(O)c(OC)cc3[C@@H]2C[C@@H]1C[C@H]1NCCc2c1[nH]c1ccccc21.O=C(O)C(F)(F)F.O=C(O)C(F)(F)F | Non-Toxic | Active | Non-Toxic
22 | COC1=C[C@@H]2C3=C([C@@H]2C1=O)[C@@H](NC(C)=O)CCc1cc(OC)c(O)c(OC)c13 | Non-Toxic | – | Non-Toxic
